*1 amine or outer side, *2 acyl side, *3 side chain or, on linkers, in order; H or OH if unused. Where a SMILES comes first, the peptide text is derived from it. Side-chain parts run from the residue outwards. γGlu = O=C(O)[C@H](CCC(=O)[*:2])N[*:1]; Suc = O=C(CCC(=O)[*:2])[*:1]
What follows are compounds tested against T1, glucagon receptor (Homo sapiens, UniProt P47871) (assay: Assay (I) Glucagon activity (cAMP biosensor, FLIPR)). Details: HEK-293 cells with cloned glucagon receptor and cAMP biosensor; end point after 6 minutes.
T1 construct: expressed in transfected cells
T1 sequence (P47871 26-477): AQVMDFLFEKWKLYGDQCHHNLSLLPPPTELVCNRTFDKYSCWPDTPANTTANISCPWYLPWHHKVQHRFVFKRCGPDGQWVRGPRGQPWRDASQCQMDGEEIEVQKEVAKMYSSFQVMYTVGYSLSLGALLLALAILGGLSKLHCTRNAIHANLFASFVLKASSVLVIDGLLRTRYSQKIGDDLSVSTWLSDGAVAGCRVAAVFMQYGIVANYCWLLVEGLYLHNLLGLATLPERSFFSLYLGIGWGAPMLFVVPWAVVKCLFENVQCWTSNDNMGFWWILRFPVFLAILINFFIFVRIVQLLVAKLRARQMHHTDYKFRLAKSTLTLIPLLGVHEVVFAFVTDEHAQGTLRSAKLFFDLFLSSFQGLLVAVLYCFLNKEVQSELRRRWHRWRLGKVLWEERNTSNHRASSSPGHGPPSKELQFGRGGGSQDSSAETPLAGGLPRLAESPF
Assay type: cell-based
How it was run: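 HEK-293 cells expressing glucagon receptor with membrane cAMP biosensor (ACTOne), calcium-dye loaded with probenecid and a PDE inhibitor.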

| Compound | EC50 [pM] |
| --- | --- |
| CC(=O)N[C@@H](CCC(=O)N[C@@H](CCC(=O)N[C@@H](CCC(=O)N[C@@H](CCC(=O)NCCCC[C@H](NC(=O)[C@@H](NC(=O)[C@H](Cc1ccccc1)NC(=O)[C@H](CC(=O)O)NC(=O)[C@H](CCC(N)=O)NC(=O)[C@H](C)NC(=O)[C@H](CCCNC(=N)N)NC(=O)[C@H](CCCNC(=N)N)NC(=O)[C@H](CC(C)C)NC(=O)[C@H](CC(=O)O)NC(=O)[C@H](CC(C)C)NC(=O)[C@H](Cc1ccc(O)cc1)NC(=O)[C@H](CCCNC(=N)N)NC(=O)[C@H](CO)NC(=O)[C@H](Cc1ccc(O)cc1)NC(=O)[C@H](CC(=O)O)NC(=O)[C@H](CO)NC(=O)[C@@H](NC(=O)[C@H](Cc1ccccc1)NC(=O)[C@@H](NC(=O)CNC(=O)[C@H](CCC(N)=O)NC(=O)[C@H](CO)NC(=O)[C@@H](N)Cc1c[nH]cn1)[C@@H](C)O)[C@@H](C)O)C(C)C)C(=O)N[C@@H](Cc1c[nH]c2ccccc12)C(=O)N[C@@H](CC(C)C)C(=O)N[C@@H](CC(C)C)C(=O)N[C@@H](CO)C(=O)N[C@H](C(=O)O)[C@@H](C)O)C(=O)O)C(=O)O)C(=O)O)C(=O)O [Example 39, N^ε24-[(4S)-4-[[(4S)-4-[[(4S)-4-[[(4S)-4-acetamido-4-carboxybutanoyl]amino]-4-carboxybutanoyl]amino]-4-carboxybutanoyl]amino]-4-carboxybutanoyl]-[Arg12,Leu16,Lys24,Leu27,Ser28]-Glucagon] (H-HSQGTFTSDYSRYLDLRRAQDFVK([γGlu-γGlu-γGlu-γGlu-Ac])WLLST-OH) | 3 |
| CC(=O)N[C@@H](CCC(=O)N[C@@H](CCC(=O)N[C@@H](CCC(=O)N[C@@H](CCC(=O)NCCCC[C@H](NC(=O)[C@@H](NC(=O)[C@H](Cc1ccccc1)NC(=O)[C@H](CC(=O)O)NC(=O)[C@H](CCC(N)=O)NC(=O)[C@H](C)NC(=O)[C@H](CCCNC(=N)N)NC(=O)[C@H](CCCNC(=N)N)NC(=O)[C@H](CC(C)C)NC(=O)[C@H](CC(=O)O)NC(=O)[C@H](CC(C)C)NC(=O)[C@H](Cc1ccc(O)cc1)NC(=O)[C@H](CCCCN)NC(=O)[C@H](CO)NC(=O)[C@H](Cc1ccc(O)cc1)NC(=O)[C@H](CC(=O)O)NC(=O)[C@H](CO)NC(=O)[C@@H](NC(=O)[C@H](Cc1ccccc1)NC(=O)[C@@H](NC(=O)CNC(=O)[C@H](CCC(N)=O)NC(=O)[C@H](CO)NC(=O)[C@@H](N)Cc1c[nH]cn1)[C@@H](C)O)[C@@H](C)O)C(C)C)C(=O)N[C@@H](Cc1c[nH]c2ccccc12)C(=O)N[C@@H](CC(C)C)C(=O)N[C@@H](CC(C)C)C(=O)N[C@@H](CO)C(=O)N[C@H](C(=O)O)[C@@H](C)O)C(=O)O)C(=O)O)C(=O)O)C(=O)O [Example 38, N^ε24-[(4S)-4-[[(4S)-4-[[(4S)-4-[[(4S)-4-acetamido-4-carboxybutanoyl]amino]-4-carboxybutanoyl]amino]-4-carboxybutanoyl]amino]-4-carboxybutanoyl]-[Leu16,Lys24,Leu27,Ser28]-Glucagon] | 2.9 |
| CC(=O)N[C@@H](CCC(=O)N[C@@H](CCC(=O)N[C@@H](CCC(=O)N[C@@H](CCC(=O)NCCCC[C@H](NC(=O)[C@@H](NC(=O)[C@H](Cc1ccccc1)NC(=O)[C@H](CC(=O)O)NC(=O)[C@H](CCC(N)=O)NC(=O)[C@H](C)NC(=O)[C@H](CCCNC(=N)N)NC(=O)[C@H](CCCNC(=N)N)NC(=O)[C@H](CC(C)C)NC(=O)[C@H](CC(=O)O)NC(=O)[C@H](CC(C)C)NC(=O)[C@H](Cc1ccc(O)cc1)NC(=O)[C@H](CCCCN)NC(=O)[C@H](CO)NC(=O)[C@H](Cc1ccc(O)cc1)NC(=O)[C@H](CC(=O)O)NC(=O)[C@H](CO)NC(=O)[C@@H](NC(=O)[C@H](Cc1ccccc1)NC(=O)[C@@H](NC(=O)CNC(=O)[C@H](CCC(N)=O)NC(=O)[C@@H](NC(=O)[C@@H](N)Cc1c[nH]cn1)[C@@H](C)O)[C@@H](C)O)[C@@H](C)O)C(C)C)C(=O)N[C@@H](Cc1c[nH]c2ccccc12)C(=O)N[C@@H](CC(C)C)C(=O)N[C@@H](CC(C)C)C(=O)N[C@@H](CO)C(=O)N[C@H](C(=O)O)[C@@H](C)O)C(=O)O)C(=O)O)C(=O)O)C(=O)O [Example 41, N^e24-[(4S)-4-[[(4S)-4-[[(4S)-4-[[(4S)-4-acetamido-4-carboxybutanoyl]amino]-4-carboxybutanoyl]amino]-4-carboxybutanoyl]amino]-4-carboxybutanoyl]-[Thr^2,Leu^16,Lys^24,Leu^27,Ser^28]-Glucagon] (H-HTQGTFTSDYSKYLDLRRAQDFVK([γGlu-γGlu-γGlu-γGlu-Ac])WLLST-OH) | 3 |
| CC(=O)N[C@@H](CCC(=O)N[C@@H](CCC(=O)N[C@@H](CCC(=O)N[C@@H](CCC(=O)NCCCC[C@H](NC(=O)[C@@H](NC(=O)[C@H](Cc1ccccc1)NC(=O)[C@H](CCC(=O)O)NC(=O)[C@H](C)NC(=O)[C@H](C)NC(=O)[C@H](CCCNC(=N)N)NC(=O)[C@H](CCCNC(=N)N)NC(=O)[C@@H](NC(=O)[C@H](CC(=O)O)NC(=O)[C@H](CC(C)C)NC(=O)[C@H](Cc1ccc(O)cc1)NC(=O)[C@H](CCCCN)NC(=O)[C@H](CO)NC(=O)[C@H](Cc1ccc(O)cc1)NC(=O)[C@H](CC(=O)O)NC(=O)[C@H](CO)NC(=O)[C@@H](NC(=O)[C@H](Cc1ccccc1)NC(=O)[C@@H](NC(=O)CNC(=O)[C@H](Cc1c[nH]cn1)NC(=O)[C@H](C)NC(=O)[C@@H](N)Cc1c[nH]cn1)[C@@H](C)O)[C@@H](C)O)C(C)C)C(C)C)C(=O)N[C@@H](Cc1c[nH]c2ccccc12)C(=O)N[C@@H](CC(C)C)C(=O)N[C@@H](CC(C)C)C(=O)N[C@@H](CO)C(=O)N[C@H](C(=O)O)[C@@H](C)O)C(=O)O)C(=O)O)C(=O)O)C(=O)O [Example 47, N^ε24-[(4S)-4-[[(4S)-4-[[(4S)-4-[[(4S)-4-acetamido-4-carboxybutanoyl]amino]-4-carboxybutanoyl]amino]-4-carboxybutanoyl]amino]-4-carboxybutanoyl]-[Ala^2,His^3,Val^16,Ala^20,Glu^21,Lys^24,Leu^27,Ser^28]-Glucagon] (H-HAHGTFTSDYSKYLDVRRAAEFVK([γGlu-γGlu-γGlu-γGlu-Ac])WLLST-OH) | 9 |
| CC(=O)N[C@@H](CCC(=O)N[C@@H](CCC(=O)N[C@@H](CCC(=O)N[C@@H](CCC(=O)NCCCC[C@H](NC(=O)[C@@H](NC(=O)[C@H](Cc1ccccc1)NC(=O)[C@H](CC(=O)O)NC(=O)[C@H](CCC(N)=O)NC(=O)[C@H](C)NC(=O)[C@H](CCCNC(=N)N)NC(=O)[C@H](CCCNC(=N)N)NC(=O)[C@H](CO)NC(=O)[C@H](CCC(=O)O)NC(=O)[C@H](CC(C)C)NC(=O)[C@H](Cc1ccc(O)cc1)NC(=O)[C@H](CCCCN)NC(=O)[C@H](CO)NC(=O)[C@H](Cc1ccc(O)cc1)NC(=O)[C@H](CC(=O)O)NC(=O)[C@H](CO)NC(=O)[C@@H](NC(=O)[C@H](Cc1ccccc1)NC(=O)[C@@H](NC(=O)CNC(=O)[C@H](CCC(N)=O)NC(=O)[C@H](CO)NC(=O)[C@@H](N)Cc1c[nH]cn1)[C@@H](C)O)[C@@H](C)O)C(C)C)C(=O)N[C@@H](Cc1c[nH]c2ccccc12)C(=O)N[C@@H](CC(C)C)C(=O)N[C@@H](CC(C)C)C(=O)N[C@@H](CC(N)=O)C(=O)N[C@H](C(=O)O)[C@@H](C)O)C(=O)O)C(=O)O)C(=O)O)C(=O)O [Example 17, N^ε24-[(4S)-4-[[(4S)-4-[[(4S)-4-[[(4S)-4-acetamido-4-carboxybutanoyl]amino]-4-carboxybutanoyl]amino]-4-carboxybutanoyl]amino]-4-carboxybutanoyl]-[Glu15,Lys24,Leu27]-Glucagon] | 16.5 |
| CC(=O)N[C@@H](CCC(=O)N[C@@H](CCC(=O)N[C@@H](CCC(=O)N[C@@H](CCC(=O)NCCCC[C@H](NC(=O)[C@@H](NC(=O)[C@H](Cc1ccccc1)NC(=O)[C@H](CCC(=O)O)NC(=O)[C@H](C)NC(=O)[C@H](C)NC(=O)[C@H](CCCNC(=N)N)NC(=O)[C@H](CCCNC(=N)N)NC(=O)[C@@H](NC(=O)[C@H](CC(=O)O)NC(=O)[C@H](CC(C)C)NC(=O)[C@H](Cc1ccc(O)cc1)NC(=O)[C@H](CCCCN)NC(=O)[C@H](CO)NC(=O)[C@H](Cc1ccc(O)cc1)NC(=O)[C@H](CC(=O)O)NC(=O)[C@H](CO)NC(=O)[C@@H](NC(=O)[C@H](Cc1ccccc1)NC(=O)[C@@H](NC(=O)CNC(=O)[C@H](CCC(N)=O)NC(=O)CNC(=O)[C@@H](N)Cc1c[nH]cn1)[C@@H](C)O)[C@@H](C)O)C(C)C)C(C)C)C(=O)N[C@@H](Cc1c[nH]c2ccccc12)C(=O)N[C@@H](CC(C)C)C(=O)N[C@@H](CC(C)C)C(=O)N[C@@H](CO)C(=O)N[C@H](C(=O)O)[C@@H](C)O)C(=O)O)C(=O)O)C(=O)O)C(=O)O [Example 49, N^ε24-[(4S)-4-[[(4S)-4-[[(4S)-4-[[(4S)-4-acetamido-4-carboxybutanoyl]amino]-4-carboxybutanoyl]amino]-4-carboxybutanoyl]amino]-4-carboxybutanoyl]-[Gly^2,Val^16,Ala^20,Glu^21,Lys^24,Leu^27,Ser^28]-Glucagon] (H-HGQGTFTSDYSKYLDVRRAAEFVK([γGlu-γGlu-γGlu-γGlu-Ac])WLLST-OH) | 54 |
| CC(C)C[C@H](NC(=O)[C@H](CC(=O)O)NC(=O)[C@H](CC(C)C)NC(=O)[C@H](Cc1ccc(O)cc1)NC(=O)[C@H](CCCNC(=N)N)NC(=O)[C@H](CO)NC(=O)[C@H](Cc1ccc(O)cc1)NC(=O)[C@H](CC(=O)O)NC(=O)[C@H](CO)NC(=O)[C@@H](NC(=O)[C@H](Cc1ccccc1)NC(=O)[C@@H](NC(=O)CNC(=O)[C@H](CCC(N)=O)NC(=O)[C@H](CO)NC(=O)[C@@H](N)Cc1c[nH]cn1)[C@@H](C)O)[C@@H](C)O)C(=O)N[C@@H](CCCNC(=N)N)C(=O)N[C@@H](CCCNC(=N)N)C(=O)N[C@@H](C)C(=O)N[C@@H](C)C(=O)N[C@@H](CC(=O)O)C(=O)N[C@@H](Cc1ccccc1)C(=O)N[C@H](C(=O)N[C@@H](CCCCNC(=O)CC[C@H](NC(=O)CC[C@H](NC(=O)CC[C@H](NC(=O)CC[C@H](NC(=O)CCC(=O)O)C(=O)O)C(=O)O)C(=O)O)C(=O)O)C(=O)N[C@@H](Cc1c[nH]c2ccccc12)C(=O)N[C@@H](CC(C)C)C(=O)N[C@@H](CC(C)C)C(=O)N[C@@H](CO)C(=O)N[C@H](C(=O)O)[C@@H](C)O)C(C)C [Example 66, N^ε24-[(4S)-4-carboxy-4-[[(4S)-4-carboxy-4-[[(4S)-4-carboxy-4-[[(4S)-4-carboxy-4-(3-carboxypropanoylamino)butanoyl]amino]butanoyl]amino]butanoyl]amino]butanoyl]-[Arg^12,Leu^16,Ala^20,Lys^24,Leu^27,Ser^28]-Glucagon] (H-HSQGTFTSDYSRYLDLRRAADFVK([γGlu-γGlu-γGlu-γGlu-Suc])WLLST-OH) | 20 |

From US20140031278A1, “Novel Glucagon Analogues” (NOVO NORDISK A/S, priority 2011, published 2014)
